Among the data in PubChem BioAssay AID296 (DTP/NCI, 2004) are T/C values, retold here.

Values joined by “and” are separate entries in the source; they are usually repeats but may differ in a detail not shown here. Equal values may be shown once. Records with an inconclusive call do not appear.

The test deals with MX-1 breast xenograft, nude mice, tumor weight T/C. Nature of the test: NCI In Vivo Anticancer Drug Screen. Data for tumor model Human Mammary Carcinoma MX-1 Xenograft (intrarenal inoculation) in NU/NU Swiss (nude) mice. The conditions noted are these: endpoint: mean tumor weight change, higher = larger tumour. Here is the method:
The antitumor activity of compounds was measured in mice bearing transplantable tumors. Survival or tumor size were measured and the results are expressed as the measurement made in the treated group (T) divided by the measurement made in the vehicle treated control group (C). The tumor model used in this assay is Human Mammary Carcinoma MX-1 Xenograft (intrarenal inoculation) in NU/NU Swiss (nude) mice
In general terms: A xenograft is tissue or cells of one species grown in another, often human tumour cells in immunodeficient mice.

[1] abbreviates: dose: 25.0 mg/kg/injection, schedule: Q01DX010 (sc), vehicle: saline.
Setting [2] is: dose: 50.0 mg/kg/injection, schedule: Q01DX010 (sc), vehicle: saline.
[3] abbreviates: dose: 100.0 mg/kg/injection, schedule: Q01DX010 (sc), vehicle: saline.
Setting [4] is: dose: 300.0 mg/kg/injection, schedule: Q04DX003 (sc), vehicle: suspension in saline.
Where [5] appears, read: dose: 300.0 mg/kg/injection, schedule: Q04DX003 (sc), vehicle: saline with Tween-80.
Setting [6] is: dose: 600.0 mg/kg/injection, schedule: Q04DX003 (sc), vehicle: saline with Tween-80.
Where [7] appears, read: dose: 1200.0 mg/kg/injection, schedule: Q04DX003 (sc), vehicle: saline with Tween-80.
[8] abbreviates: dose: 2400.0 mg/kg/injection, schedule: Q04DX003 (sc), vehicle: saline with Tween-80.
The mark [9] stands for this setting: dose: 300.0 mg/kg/injection, schedule: Q04DX003 (sc), vehicle: Klucel (hydroxypropylcellulose) (HPC).
Setting [10] is: dose: 600.0 mg/kg/injection, schedule: Q04DX003 (sc), vehicle: Klucel (hydroxypropylcellulose) (HPC).
Setting [11] is: dose: 1200.0 mg/kg/injection, schedule: Q04DX003 (sc), vehicle: Klucel (hydroxypropylcellulose) (HPC).
[12] abbreviates: dose: 2400.0 mg/kg/injection, schedule: Q04DX003 (sc), vehicle: Klucel (hydroxypropylcellulose) (HPC).
[13] abbreviates: dose: 150.0 mg/kg/injection, schedule: Q04DX003 (sc), vehicle: Klucel (hydroxypropylcellulose) (HPC).
Setting [14] is: dose: 75.0 mg/kg/injection, schedule: Q04DX003 (sc), vehicle: saline with Tween-80.
The mark [15] stands for this setting: dose: 150.0 mg/kg/injection, schedule: Q04DX003 (sc), vehicle: saline with Tween-80.

`CN(CO)c1nc(N(C)CO)nc(N(C)CO)n1`: the T/C is, setting by setting: (dose: 12.5 mg/kg/injection, schedule: Q01DX010 (sc), vehicle: saline) 157 % of control; under setting [1], 55 % of control; under setting [2], 4 % of control; under setting [3], -81 % of control; (dose: 100.0 mg/kg/injection, schedule: Q01DX010 (sc), vehicle: suspension in saline) -100 % of control; (dose: 150.0 mg/kg/injection, schedule: Q04DX003 (sc), vehicle: saline) -80 % of control and -77 % of control and -57 % of control. The T/C is -100 % of control (dose: 200.0 mg/kg/injection, schedule: Q01DX010 (sc), vehicle: suspension in saline); -85 % of control and -84 % of control (dose: 300.0 mg/kg/injection, schedule: Q04DX003 (sc), vehicle: saline); -87 % of control and -100 % of control under setting [4].

As to `Cc1cc(NCCCCCCCNc2cc(C)nc3cc(N)ccc23)c2ccc(N)cc2n1`, where the note is “dose: 12.5 mg/kg/injection, schedule: Q01DX010 (sc), vehicle: saline with Tween-80”, the T/C was 53 % of control and 56 % of control and 72 % of control.

In the case of `NC(=S)c1ncn(C2OC(CO)C(O)C2O)c1N` (configuration not stated), the T/C was 50 % of control under setting [4]; 89 % of control (dose: 600.0 mg/kg/injection, schedule: Q04DX003 (sc), vehicle: suspension in saline); 95 % of control (dose: 1200.0 mg/kg/injection, schedule: Q04DX003 (sc), vehicle: suspension in saline); 99 % of control (dose: 2400.0 mg/kg/injection, schedule: Q04DX003 (sc), vehicle: suspension in saline).

Consider `CN1C(=O)C(=Cc2ccc(O)cc2)C(=O)N(C)C1=O`, for which the T/C reads like this: under setting [5], 96 % of control; under setting [6], 92 % of control; under setting [7], 99 % of control; under setting [8], 107 % of control.

`CC[As](=O)(O)CC`: the T/C (dose: 100.0 mg/kg/injection, schedule: Q04DX003 (sc), vehicle: saline) was 96 % of control and the T/C (dose: 200.0 mg/kg/injection, schedule: Q04DX003 (sc), vehicle: saline) was 88 % of control.

As for `Cc1ccc(C(=O)[O][Hg][CH2]C2COC([CH2][Hg][O]C(=O)c3ccc(C)cc3)CO2)cc1` (configuration not stated), the T/C is, setting by setting: under setting [9], 109 % of control; under setting [10], 106 % of control; under setting [11], 72 % of control; under setting [12], 102 % of control.

On to `O=S(=O)(O)O`, for which the T/C was 86 % of control (dose: 75.0 mg/kg/injection, schedule: Q04DX003 (sc), vehicle: Klucel (hydroxypropylcellulose) (HPC)); 94 % of control under setting [13]; 85 % of control under setting [9].

In the case of `C[C@]12CC[C@@H]3c4ccc(O)cc4CC[C@H]3[C@@H]1CC[C@@H]2O`, the T/C under setting [13] was 101 % of control, the T/C under setting [9] is 101 % of control, the T/C under setting [10] was 101 % of control and the T/C under setting [11] was 104 % of control.

`CC1=CC2C(O)(CC(CO)=CC3C4C(C)(C)C4(OC(=O)c4ccccc4)C(OC(=O)c4ccccc4)C(C)C32O)C1=O` (configuration not stated): the T/C is 83 % of control (dose: 2.5 mg/kg/injection, schedule: Q04DX003 (sc), vehicle: saline with Tween-80); 70 % of control (dose: 5.0 mg/kg/injection, schedule: Q04DX003 (sc), vehicle: saline with Tween-80); 90 % of control (dose: 10.0 mg/kg/injection, schedule: Q04DX003 (sc), vehicle: saline with Tween-80).

Turning to `OC(CCl)CN1CC[N+]2(CC1)CC[N+]1(CCN(CC(O)CCl)CC1)CC2` (configuration not stated), the T/C (dose: 8.0 mg/kg/injection, schedule: Q01DX010 (sc), vehicle: water) is 117 % of control; the T/C (dose: 32.0 mg/kg/injection, schedule: Q01DX010 (ip), vehicle: water) was 90 % of control; the T/C (dose: 64.0 mg/kg/injection, schedule: Q01DX010 (ip), vehicle: water) was 88 % of control; the T/C (dose: 64.0 mg/kg/injection, schedule: Q01DX010 (sc), vehicle: water) is 92 % of control and 94 % of control; the T/C (dose: 106.66 mg/kg/injection, schedule: Q04DX003 (ip), vehicle: water) was 30 % of control; the T/C (dose: 106.66 mg/kg/injection, schedule: Q04DX003 (sc), vehicle: water) was 45 % of control. The T/C (dose: 128.0 mg/kg/injection, schedule: Q01DX010 (ip), vehicle: water) is 21 % of control; the T/C (dose: 213.33 mg/kg/injection, schedule: Q04DX003 (ip), vehicle: water) is 52 % of control; the T/C (dose: 213.33 mg/kg/injection, schedule: Q04DX003 (sc), vehicle: water) is 59 % of control; the T/C (dose: 256.0 mg/kg/injection, schedule: Q01DX010 (ip), vehicle: water) is 27 % of control; the T/C (dose: 426.65 mg/kg/injection, schedule: Q04DX003 (ip), vehicle: water) is 26 % of control; the T/C (dose: 426.65 mg/kg/injection, schedule: Q04DX003 (sc), vehicle: water) is 49 % of control. The T/C (dose: 512.0 mg/kg/injection, schedule: Q01DX010 (sc), vehicle: water) was 25 % of control.

For the compound `CSCS(=O)C[C@H](CO)NC(=O)/C=C/c1c(C)[nH]c(=O)[nH]c1=O` (some centres not stated), the T/C was 106 % of control (dose: 0.38 mg/kg/injection, schedule: Q04DX003 (sc), vehicle: saline) and 97 % of control (dose: 0.75 mg/kg/injection, schedule: Q04DX003 (sc), vehicle: saline).

`CCCCCCCCCCCCCC#CC(=O)O`: the T/C was 87 % of control under setting [14], 94 % of control under setting [15], 92 % of control under setting [5] and 77 % of control under setting [6].

As for `CN1C(=O)NC(c2ccc(Cl)cc2)(c2ccc(Cl)cc2)C1=O`, the T/C reads like this: (dose: 50.0 mg/kg/injection, schedule: Q01DX010 (sc), vehicle: saline with Tween-80) 90 % of control; (dose: 100.0 mg/kg/injection, schedule: Q01DX010 (sc), vehicle: saline with Tween-80) 109 % of control; (dose: 200.0 mg/kg/injection, schedule: Q01DX010 (sc), vehicle: saline with Tween-80) 60 % of control; (dose: 400.0 mg/kg/injection, schedule: Q01DX010 (sc), vehicle: saline with Tween-80) 49 % of control.

Turning to `C[n+]1ccc(Nc2ccc(NC(=O)c3ccc(Nc4cc[n+](C)c5ccc(N)cc45)cc3)cc2)cc1`, for the setting “dose: 50.0 mg/kg/injection, schedule: Q04DX003 (sc), vehicle: distilled water + Tween-80”, the T/C is 59 % of control.

`COc1cc(C(C)(C)C)cc(OC)c1C(O)(c1c(OC)cc(C(C)(C)C)cc1OC)c1c(OC)cc(C(C)(C)C)cc1OC`: the T/C was 212 % of control under setting [6], 154 % of control under setting [7] and 207 % of control under setting [8].

Regarding `Nc1ncnc2c1ncn2C1C=C(CO)C(O)C1O` (configuration not stated), the T/C was 88 % of control (dose: 3.75 mg/kg/injection, schedule: Q04DX003 (sc), vehicle: saline); 75 % of control (dose: 7.5 mg/kg/injection, schedule: Q04DX003 (sc), vehicle: saline); 64 % of control (dose: 15.0 mg/kg/injection, schedule: Q04DX003 (sc), vehicle: saline).

`C[Si](C)(C)n1nnn(-c2ccccc2)c1=O`: the T/C reads like this: under setting [14], 90 % of control; under setting [15], 71 % of control; under setting [6], 91 % of control.

As for `CN1CCN(CCCN2c3ccccc3Sc3ccc(C(F)(F)F)cc32)CC1`, the T/C under setting [1] was 107 % of control; the T/C under setting [2] is 61 % of control and 73 % of control; the T/C under setting [3] is 31 % of control and 52 % of control; the T/C (dose: 200.0 mg/kg/injection, schedule: Q01DX010 (sc), vehicle: saline) was 32 % of control.

Take `O=Cc1ccc(C=O)c(Cl)c1`: the T/C under setting [10] was 77 % of control and the T/C under setting [12] is 120 % of control.

In the case of `Cc1ccc2c(c1)N=C(Nc1ccccc1)N=S2(C)=O` (configuration not stated), the T/C is, setting by setting: (dose: 100.0 mg/kg/injection, schedule: Q04DX003 (sc), vehicle: saline with Tween-80) 79 % of control; (dose: 200.0 mg/kg/injection, schedule: Q04DX003 (sc), vehicle: saline with Tween-80) 78 % of control; (dose: 400.0 mg/kg/injection, schedule: Q04DX003 (sc), vehicle: saline with Tween-80) 75 % of control; (dose: 800.0 mg/kg/injection, schedule: Q04DX003 (sc), vehicle: saline with Tween-80) 60 % of control.
